This is an account of results in patent publication US20250340529A1, “Heterocyclic Compounds as Immunomodulators of PD-L1 Interactions” (Ascletis BioScience Co., Ltd, priority 2021, published 2025).

One may read the pIC50 as the negative decadic logarithm of the IC50, by convention in mol/L. A high value points to a small IC50. In general, pEC50 refers to −log10 of the EC50, conventionally taken in molar units.

The target in test [1] is PD-1/PD-L1 (Homo sapiens (Human), UniProt Q9NZQ7). Briefly: PD-1/PD-L1 Homogeneous Time-Resolved Fluorescence (HTRF) binding assay. To be noted: 3 nM PD1, 10 nM PD-L1, 25° C., PBS pH 7.4. The procedure:
PD-1/PD-L1 Homogeneous Time-Resolved Fluorescence (HTRF) Binding Assay
The assays were conducted in a standard black 384-well polystyrene plate with a final volume of 20 μL. Inhibitors were first serially diluted in DMSO and then added to the plate wells before the addition of other reaction components. The final concentration of DMSO in the assay was 1%. The assays were carried out at 25° C. in the PBS buffer (pH 7.4) with 0.05% Tween-20 and 0.1% BSA. Recombinant human PD-L1 protein (19-238) with a Histag at the C-terminus was purchased from AcroBiosystems (PD1-H5229). Recombinant human PD-1 protein (25-167) with Fe tag at the C-terminus was also purchased from AcroBiosystems (PD1-H5257). PD-L1 and PD-1 proteins were diluted in the assay buffer and 10 μL was added to the plate well. Plates were centrifuged and proteins were preincubated with inhibitors for 40 minutes. The incubation was followed by the addition of 10 μL of HTRF detection buffer supplemented with Europium cryptate-labeled anti-human IgG (PerkinElmer-AD0212) specific for Fe and anti-His antibody conjugated to SureLight®-Allophycocyanin (APC, PerkinElmer-AD0059H). After centrifugation, the plate was incubated at 25° C. for 60 min. before reading on a PHERAstar FS plate reader (665 nm/620 nm ratio). Final concentrations in the assay were—3 nM PD1, 10 nM PD-L1, 1 nM europium anti-human IgG and 20 nM anti-His-Allophycocyanin. IC50 determination was performed by fitting the curve of percent control activity versus the log of the inhibitor concentration.

For test [2], the target named is PD-L1/CHO-K1 cells (Homo sapiens (Human), UniProt Q9NZQ7). Briefly: PD-L1 internalization (FACS, PD-L1/CHO-K1 cells). It counts as cell-based. To be noted: % activation of PD-L1 internalization = 1 − PD-L1 signal; 17 hours incubation. The procedure: Day 1. Seeding cells: Digest the PD-L1/CHO-K1 cells by trypsin in the flask, then counting the cell number and diluted to 1×10^5 cells/ml. Seeding cells to 6 well plate (Corning, #3516), 2 mL/well. The plates were incubated at 37° C., […] incubator for 24 hours.
Day 2. Preparing compounds and treated cells: Dilute GLC01-258 from 15 mM to 0.5 mM by using DMSO, and 15 mM compound were serial diluted from 15 mM˜15 nM by DMSO, Then 500 times dilute the compounds by using assay buffer. Prepare 0.2% DMSO in assay buffer used for Vehicle control and low control. Take out the plates, aspirated the medium and thrown away. Adding 2 mL of the diluted compounds, vehicle control and low control to corresponding wells. Then incubated the plates for 17 hours at 37° C., 5% CO2 incubator.
Day 3. Preparing samples for FACS: After 17 hours incubation, discarded medium and washed by the PBS. Cells in each well were Digested by trypsin. Centrifuge and discard the supernatant, then wash the cells by DPBS (Ca^2+, Mg^2+ free) for twice. 10 fold dilute the antibody (PE-conjugated mouse anti-human CD274) by DPBS, then adding the staining solution to compounds treated samples and vehicle control sample. The low control only add DPBS without antibody. Incubate the plates at room temperature for 20 minutes and protect from light. After 20 minutes, wash the samples by DPBS for twice. Then centrifuge and discard the supernatant. Resuspend cells by 300 uL DPBS and transfer the samples to 5 mL Polystryrene Round-Bottom Tube (Falcon, #352054), then tested by BD FACSCanto. […].
Set the PD-L1 signal of vehicle control as 100%, PD-L1 signal of Low control as 0%. Then calculate the compound treated samples' PD-L1 signal
0% PD-L1 signal: Low control which stained without anti-CD274
100% PD-L1 Signal: vehicle control which stained with anti-CD274
The % activation of PD-L1 Internalization=1−PD-L1 signal of compound.

Test [3] concerns the target extracellular domains of PD-L1 (Homo sapiens (Human), UniProt Q9NZQ7). In words: PD-L1 dimerization (biochemical protein-protein interaction assay). To be noted: PDL1-Eu and PDL1-A2, 25° C., 120 min. How it is done:
Compounds were tested in biochemical protein-protein interaction assays to determine if they can specifically dimerize the extracellular domains of PD-L1. • (1) Dilute cpd 1:3 in succession in DMSO for each column for 10±0 pts (refer to dilution plate map) • (2) Transfer 0.2 μL cpds solution in each row to 384 assay plate using Echo, each column containing 2 replicates (refer to assay plate map). • (3) Add 20 μL prepared mixture include PDL1-Eu and PDL1-A2 solution to assay plate, centrifuge at 1000 rpm for 1 min. • (4) Incubate at 25° C. for 120 min. • (5) Read fluorescence signal on Envision 2104 plate reader. • (6) Read the Ratio (665 nm/615 nm) signal on Envision. • (7) Analyze the raw data using the equation (V. Data analysis)

pEC50, pIC50: −log10 of the molar value.

Sequence of extracellular domains of PD-L1 (Q9NZQ7 19-238): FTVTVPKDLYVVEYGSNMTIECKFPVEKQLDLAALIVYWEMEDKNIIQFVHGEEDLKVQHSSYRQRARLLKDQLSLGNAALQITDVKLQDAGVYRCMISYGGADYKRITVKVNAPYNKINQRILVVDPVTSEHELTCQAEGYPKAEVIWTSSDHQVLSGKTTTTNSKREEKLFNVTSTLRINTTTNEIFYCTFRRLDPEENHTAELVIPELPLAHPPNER
Sequence of PD-1/PD-L1 (Q9NZQ7 19-238): as above
Sequence of PD-L1/CHO-K1 cells (Q9NZQ7 19-290): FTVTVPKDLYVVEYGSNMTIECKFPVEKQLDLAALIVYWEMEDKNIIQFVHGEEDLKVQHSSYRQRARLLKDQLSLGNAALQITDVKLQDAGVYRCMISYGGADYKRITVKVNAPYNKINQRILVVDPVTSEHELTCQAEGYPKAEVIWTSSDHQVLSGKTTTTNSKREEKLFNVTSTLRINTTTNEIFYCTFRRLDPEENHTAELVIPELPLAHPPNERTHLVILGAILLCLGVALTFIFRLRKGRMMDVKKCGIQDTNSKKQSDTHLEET

As to `C[C@@H](CN1C(=O)COc2cc(-c3cccc(-c4cccc(-c5ccc6c(c5)OCC(=O)N6C[C@H](C)N[C@@H](CO)C(=O)O)c4Cl)c3Cl)ccc21)N[C@@H](CO)C(=O)O` [Compound 550], the negative-log IC50 (pIC50) in test [1] was 8.40. The same compound yielded an Internalization in test [2] of 3.00%. Besides, the pEC50 in test [3] was 6.65.
For `C[C@H](CN1C(=O)COc2cc(-c3cccc(-c4cccc(-c5ccc6c(c5)OCC(=O)N6C[C@@H](C)N[C@@H](CO)C(=O)O)c4Cl)c3Cl)ccc21)N[C@@H](CO)C(=O)O` [Compound 563, (2S,2'S)-2,2′-(((2R,2′R)-((2,2′-dichloro-[1,1′-biphenyl]-3,3′-diyl)bis(3-oxo-2,3-dihydro-4H-benzo[b][1,4]oxazine-7,4-diyl))bis(propane-1,2-diyl))bis(azanediyl))bis(3-hydroxypropanoic acid)] the same measures were 8.14, 25.50% and 7.42.
For `O=C1COc2cc(-c3cccc(-c4cccc(-c5ccc6c(c5)OCC(=O)N6C[C@@H]5C[C@@H](O)CN5)c4Cl)c3Cl)ccc2N1C[C@@H]1C[C@@H](O)CN1` [Compound 472], in that order: 8.28, 17.20% and 6.45.
For `O=C(O)C[C@H](CO)NCCN1C(=O)COc2cc(-c3cccc(-c4cccc(-c5ccc6c(c5)OCC(=O)N6CCN[C@@H](CO)CC(=O)O)c4Cl)c3Cl)ccc21` [Compound 528], in that order: 8.30, 13.30% and 6.76.
Turning to `O=C(O)C1CCN(CCN2C(=O)COc3cc(-c4cccc(-c5cccc(-c6ccc7c(c6)OCC(=O)N7CCN6CC[C@H](O)C6)c5Cl)c4Cl)ccc32)C1` (stereo partly drawn) [Compound 481, 1-(2-(7-(2,2′-dichloro-3′-(4-(2-((S)-3-hydroxypyrrolidin-1-yl)ethyl)-3-oxo-3,4-dihydro-2H-benzo[b][1,4]oxazin-7-yl)-[1,1′-biphenyl]-3-yl)-3-oxo-2,3-dihydro-4H-benzo[b][1,4]oxazin-4-yl)ethyl)pyrrolidine-3-carboxylic acid], the negative-log IC50 (pIC50) in test [1] was 8.33. This compound came in with an Internalization in test [2] of 8.70%.
For `CC(CO)(NCCN1C(=O)COc2cc(-c3cccc(-c4cccc(-c5ccc6c(c5)OCC(=O)N6CCNC(C)(CO)C(=O)O)c4Cl)c3Cl)ccc21)C(=O)O` (stereo not shown) [Compound 475], in that order: 8.49 and 31.50%.
For `O=C1COc2cc(-c3cccc(-c4cccc(-c5ccc6c(c5)OCC(=O)N6CCN[C@@H](CO)C(=O)O)c4Cl)c3Cl)ccc2N1` [Compound 542] the same measures were 8.28 and 3.30%.
For the compound `O=C(O)[C@@H](CCO)NCCN1C(=O)COc2cc(-c3cccc(-c4cccc(-c5ccc6c(c5)OCC(=O)N6CCN[C@H](CCO)C(=O)O)c4Cl)c3Cl)ccc21` [Compound 552], the negative logarithm of the IC50 (pIC50) in test [1] is 8.14. The Internalization in test [2] was 4.90%.
For `O=C1COc2cc(-c3cccc(-c4cccc(-c5ccc6c(c5)OCC(=O)N6C[C@H]5NC6CCC5C6)c4Cl)c3Cl)ccc2N1C[C@H]1NC2CCC1C2` [Compound 539], in that order: 8.11 and 11.60%.
For `O=C1COc2cc(-c3cccc(-c4cccc(-c5ccc6c(c5)OCC(=O)N6CCN5CC[C@H](O)C5)c4Cl)c3Cl)ccc2N1CCN1CC[C@H](O)C1` [Compound 476], in that order: 8.28 and 6.10%.
The compound `O=C1CC[C@@H](CN2C(=O)CNc3cc(-c4cccc(-c5cccc(-c6ccc7c(c6)NCC(=O)N7C[C@@H]6CCC(=O)N6)c5Cl)c4Cl)ccc32)N1` [Compound 363] showed a pIC50 in test [1] of 8.67. In test [2], the Internalization is given as 5.50%.
`O=C(O)[C@@H]1C[C@@H](O)CN1CCN1C(=O)COc2cc(-c3cccc(-c4cccc(-c5ccc6c(c5)OCC(=O)N6CCN5C[C@H](O)C[C@H]5C(=O)O)c4Cl)c3Cl)ccc21` [Compound 454] showed a pIC50 in test [1] of 8.85. The Internalization in test [2] was 5.20%. The pEC50 in test [3] is 6.49.
As for `O=C1CC(CN2C(=O)COc3cc(-c4cccc(-c5cccc(-c6ccc7c(c6)OCC(=O)N7CC6CNC(=O)C6)c5Cl)c4Cl)ccc32)CN1` (stereo not shown) [Compound 373], the pIC50 in test [1] is 8.42. In test [2], this compound showed an Internalization of 3.20%.
In turn, `Cc1c(-c2ccc3c(c2)OCC(=O)N3CCN[C@@H](CO)C(=O)O)cccc1-c1cccc(-c2ccc3c(c2)OCC(=O)N3CCN[C@@H](CO)C(=O)O)c1C` [Compound 585] had a pIC50 in test [1] of 7.96. The Internalization in test [2] was 39.00%. Also, in test [3], the pEC50 is 6.89.
For `O=C1COc2cc(-c3cccc(-c4cccc(-c5ccc6c(c5)OCC(=O)N6C[C@@H]5CCCN5)c4Cl)c3Cl)ccc2N1C[C@@H]1CCCN1` [Compound 411, 7,7′-(2,2′-dichloro-[1,1′-biphenyl]-3,3′-diyl)bis(4-(((S)-pyrrolidin-2-yl)methyl)-2H-benzo[b][1,4]oxazin-3(4H)-one)] the same measures were 8.21, 66.90% and 6.45.
`CN1CC(=O)N(C[C@@H]2CCC(=O)N2)c2ccc(-c3cccc(-c4cccc(-c5ccc6c(c5)N(C)CC(=O)N6C[C@@H]5CCC(=O)N5)c4Cl)c3Cl)cc21` [Compound 402] had a pIC50 in test [1] of 8.70. In test [2], this compound came in with an Internalization of 2.40%.
Regarding `O=C1CC[C@@H](CN2C(=O)COc3c2ccc(-c2cccc(-c4cccc(-c5ccc6c(c5F)OCC(=O)N6C[C@@H]5CCC(=O)N5)c4Cl)c2Cl)c3F)N1` [Compound 395], the pIC50 in test [1] is 8.20. The same compound displayed an Internalization in test [2] of 2.50%.
For `C[C@@H](O)[C@H](NCCN1C(=O)COc2cc(-c3cccc(-c4cccc(-c5ccc6c(c5)OCC(=O)N6CCN[C@H](C(=O)O)[C@@H](C)O)c4Cl)c3Cl)ccc21)C(=O)O` [Compound 545], in that order: 8.32 and 7.80%.
For `O=C(O)[C@H](CO)NCCN1C(=O)COc2c1ccc(-c1cccc(-c3cccc(-c4ccc5c(c4F)OCC(=O)N5CCN[C@@H](CO)C(=O)O)c3Cl)c1Cl)c2F` [Compound 557], in that order: 8.27 and 20.30%.
For `O=C1CC[C@@H](CNCCN2C(=O)COc3cc(-c4cccc(-c5cccc(-c6ccc7c(c6)OCC(=O)N7CCNC[C@@H]6CCC(=O)N6)c5Cl)c4Cl)ccc32)N1` [Compound 449] the same measures were 8.41 and 12.20%.
For the compound `COC[C@H](NCCN1C(=O)COc2cc(-c3cccc(-c4cccc(-c5ccc6c(c5)OCC(=O)N6CCN[C@@H](COC)C(=O)O)c4Cl)c3Cl)ccc21)C(=O)O` [Compound 588], in test [1], the pIC50 is 8.13. In addition, in test [2], the Internalization was determined as 2.00%. The compound also showed a pEC50 in test [3] of 6.81.
`C[C@H](O)[C@@H](NCCN1C(=O)COc2cc(-c3cccc(-c4cccc(-c5ccc6c(c5)OCC(=O)N6CCN[C@@H](C(=O)O)[C@H](C)O)c4Cl)c3Cl)ccc21)C(=O)O` [Compound 551] gave a pIC50 in test [1] of 8.58. In test [2], this compound registered an Internalization of 3.10%.
